Values joined by “and” are separate entries in the source; they are usually repeats but may differ in a detail not shown here. Equal values may be shown once.
Legend:
[1] = Stability test; assay type: physicochemical
Procedure: In stability test, Compound 2 was stable at 25° C. for at least 60 months. Additionally, the capsule and chewable formulations of Compound 2 were stable at 25° C. for at least 24 and 12 months, respectively.

[2] = tested on: dogs with CDS; assay: Canine dementia scale (CADES) questionnaire in companion dogs with CDS; assay type: in vivo, dog
Excerpt: (§1) The companion animals tested in the study were 22 elderly dogs (12-19 years of age) diagnosed with CDS. Each dog enrolled for the present study met the following criteria: body weight <12 kg (regardless of gender), dogs which had lived with the owner for at least 90 days, dogs which were able to take oral medicine, dogs with CDS diagnosed by investigator (canine cognitive dysfunction rating (CCDR) scale ≥50 points) and dogs with informed consent of their owners. Dogs with a pregnancy or lactating, with hypersensitivity against salicylic acid derivatives, or with the underlying disease (i.e. renal dysfunction, visual loss, heart failure, or renal failure) were excluded. In addition, dogs which had participated any other clinical trials within 90 days or dogs which had not only CDS but also other neurodegenerative diseases were excluded.
(§2) This study was a randomized, blind, placebo-controlled clinical trial to investigate the efficacy and safety of Compound 2 in dogs with CDS. To investigate the efficacy of Compound 2, two questionnaires were evaluated: CCDR scale and canine dementia scale (CADES). To measure the safety of Compound 2, not only the occurrence of adverse events was investigated but also the vital signs, physical examination, and blood tests were performed in the dogs. Compound 2 was prescribed for oral administration of 10 mg/kg once-daily dosing for 8 weeks. Subjects 3 and 4 received Compound 2 additionally for 4 weeks with approval of the principal investigator. Instead of Compound 2, subjects 18-22 received placebo for 8 weeks. In this study, we allowed the dogs to be administered Compound 2 in various ways: mix with dietary supplement (subjects 1 and 3), mix with food (subjects 2 and 6), dissolve in water (subject 4), or capsule with water (subject 5), or chewable tablet with water (subjects 7-22).
(§3) Rating scales are essential tools for CDS diagnosis, staging, assessment, and careful monitoring of the disease symptoms as well as for evaluation of the efficacy of therapeutic strategies. Several rating scales have been developed during the last decade e.g. CCDR scale. To assess the severity of CDS in this study, two questionnaires (CCDR scale and CADES) were performed before and after oral administration of Compound 2 by a veterinarian. Questionnaires include a broad range of items measuring appetite, drinking behavior, barking, elimination behavior, day/night sleeping pattern, aimless behavior, adaptive capabilities, social behavior, perceptual ability, disorientation, and memory.
To ensure and confirm the CCDR scale, we used an additional questionnaire, CADES which contains 17 items distributed into four domains, related to changes in dogs' behaviors: spatial orientation, social interaction, sleep-wake cycle, and house soiling (Table 6). It can be classified according to various stages of cognitive impairment: mild, moderate, and severe cognitive impairment. It is known well that CADES is also suitable for long-term assessment of the progression of cognitive impairment in canine, and potentially as efficacy readout for treatments.

[3] = target: T1, microsomal prostaglandin E(2) synthase-1 (mPGES-1) (Homo sapiens, UniProt O14684); settings: previous study [20]; cited from earlier work
T1 sequence (O14684 1-152): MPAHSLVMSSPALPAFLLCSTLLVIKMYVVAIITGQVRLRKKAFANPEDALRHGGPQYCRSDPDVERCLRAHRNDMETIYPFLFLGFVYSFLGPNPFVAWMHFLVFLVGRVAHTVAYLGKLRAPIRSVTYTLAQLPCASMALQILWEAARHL

[4] = tested on: G93A mice; assay: Animal model of amyotrophic lateral sclerosis (G93A mice), preliminary data; assay type: in vivo; settings: oral, 2.5 mg/kg
[5] = tested on: dogs with CDS; assay: CCDR scale questionnaire in companion dogs with CDS, randomized blind placebo-controlled clinical trial; assay type: in vivo, dog; parameters: key to CCDR score, 4 weeks / CCDR score, 8 weeks / CCDR score, 12 weeks / CCDR score, 16 weeks (discontinuation) / CCDR score, 20 weeks (discontinuation) / CCDR score, 12 weeks (discontinuation): CCDR scale points (13 items); ≥50 indicates CDS
Excerpt: as §1, §2, §3
CCDR scale consists of 13 items based on CDS symptoms (Table 2). The 13 kinds of behaviors included various problems related to orientation (staring blankly, getting lost in the home), memory (lack of recognition of owners, house-soiling), apathy (reduced time spent active, avoiding contact with owners), impaired olfaction (difficulty finding food), and locomotion. These problems compromise both the dog's quality of life and the dog-owner bond. Scores ≥50 on the CCDR are indicative of CDS in the aged dogs (12-19 years of age). In this study, we compared the CCDR scores before and after administration of Compound 2 in dogs with CDS.

[6] = tested on: APP/PS1 mice; assay: Animal model of AD (APP/PS1 mice), preliminary data; assay type: in vivo; settings: oral, 2.5 mg/kg
[7] = Pharmacokinetic study in beagle dogs; assay type: in vivo; settings: dog, plasma, oral, 20 mg/kg/day
Procedure: Based upon the safety and pharmacokinetic profile of Compound 2, a dose of 10 mg/kg/day was chosen to investigate safety and efficacy of Compound 2 in canine CDS.

[8] = in vivo; parameters: species or system beagle dogs; settings: both sexes, beagle, dog, po
Procedure: The systemic toxic potential of Compound 2 in beagle dogs was investigated in Huntington Life Science, a large non-clinical contract research organization in Cambridgeshire, England. Three groups each comprising three males and three females, received Compound 2 at doses of 20, 65, or 200 mg/kg/day for 13 weeks. […] Consequently, 200 mg/kg/day was considered the no-observed-adverse-effect level (NOAEL) in dogs.

[9] = tested on: mouse model of amyotrophic lateral sclerosis; settings: previous study [20]; cited from earlier work
[10] = Pharmacokinetics after oral administration in mice; assay type: in vivo; settings: mouse, plasma, 2.5 mg/kg
[11] = tested on: dogs with CDS; assay: Safety assessment in dogs with CDS; assay type: in vivo; settings: 10 mg/kg oral once daily
Procedure: as §2
During this study, the safety of Compound 2 in dogs with CDS was evaluated at every visit.

[12] = tested on: moderate-to-severe AD; settings: cited from earlier work
[13] = tested on: CDS dogs; settings: literature [17-19]; effect in most dogs disappeared at 8 weeks after treatment; cited from earlier work
[14] = 10 mg/kg oral once daily, per individual dog
[15] = change vs 0 week, per individual dog
[16] = change vs 0 week, 10 mg/kg oral once daily, per individual dog, 10 mg/kg

O=C(O)c1cc(NCCc2ccc(C(F)(F)F)cc2)ccc1O [Compound 2, 2-hydroxy-5-[2-(4-trifluoromethyl-phenyl)-ethylamino]-benzoic acid]
stable at 25° C. for [1]: at least 60 months
CADES score of house soiling (items 13-17), 4 weeks [2, 14]: 5 (2×) and 9 and 16 and 14 and 22 (2×) and 11 and 3 and 19 (2×) and 17 and 10 and 25 and 18 and 4 and 0
CADES score of house soiling (items 13-17), 8 weeks [2, 14]: 4 (2×) and 0 (3×) and 8 and 12 and 18 and 14 and 21 and 20 and 5 and 19 and 17 and 25
CADES score of sleep-wake cycles (items 11-12), 4 weeks [2, 14]: 18 (4×) and 6 and 16 (2×) and 20 (3×) and 0 and 10 (2×) and 8 (2×) and 14 and 4
CADES score of sleep-wake cycles (items 11-12), 8 weeks [2, 14]: 10 and 0 (4×) and 14 and 12 (3×) and 20 (2×) and 16 (2×) and 8 and 6
CADES score of social interaction (items 6-10), 4 weeks [2, 14]: 5 (2×) and 14 (3×) and 17 (2×) and 13 (3×) and 0 and 25 and 15 and 10 and 18 and 20 and 19
CADES score of social interaction (items 6-10), 8 weeks [2, 14]: 15 (2×) and 5 and 10 (2×) and 14 and 11 and 19 and 4 and 24 and 16 and 18 and 9 and 13 and 3
CADES score of spatial orientation (items 1-5), 4 weeks [2, 14]: 5 (3×) and 20 (3×) and 18 (2×) and 16 and 17 and 24 (3×) and 25 (2×) and 13 and 21
CADES score of spatial orientation (items 1-5), 8 weeks [2, 14]: 9 and 15 (3×) and 13 (2×) and 17 and 25 and 0 and 24 and 20 (2×) and 22 and 23 and 4
Total CADES score, 4 weeks [2, 14]: 33 and 49 and 67 and 65 and 68 and 69 and 8 and 89 and 64 and 57 and 66 and 55 and 90 and 51 and 14
Total CADES score, 8 weeks [2, 14]: 38 and 20 and 45 and 53 and 58 and 78 and 4 and 85 and 55 and 63 and 57 and 64 and 40 and 67 and 7
companion dogs showing improvement in spatial disorientation ([2]; 4 weeks after administration, 10 of 17 dogs): 59%
companion dogs showing further improvement in social interaction at 8 weeks compared with 4 weeks ([2]; 8 of 15 dogs): 53%
companion dogs significantly improved in sleep-wake cycle (item 11) ([2]; 8 weeks after administration, 10 of 15 dogs): 67%
cognitive function by total CADES score ([2]; 8 weeks after oral administration): significant improvement in cognitive function was observed from severe to moderate, weak, or normal level
companion dogs with beneficial effects on spatial orientation ([2]; 8 weeks after oral administration, 9 of 15 dogs): 60%
CADES score of house soiling (items 13-17), change, 4 weeks [2, 15]: 1 and −6 and −2 (2×) and −5 (2×) and −1 (2×) and −4 and −15 and 0 (5×) and −3 and −10
CADES score of house soiling (items 13-17), change, 8 weeks [2, 15]: 0 (3×) and −15 and −10 (2×) and −7 and −5 and −1 (2×) and −18 and 1 and −2 and −3 and −6
CADES score of sleep-wake cycles (items 11-12), change, 4 weeks [2, 15]: −2 (5×) and −4 and 4 (2×) and 0 (6×) and −18 and −6 and −12
CADES score of sleep-wake cycles (items 11-12), change, 8 weeks [2, 15]: −10 (3×) and −4 (2×) and −2 (2×) and −6 and 0 (3×) and −18 and 2 and −14 and −16
CADES score of social interaction (items 6-10), change, 4 weeks [2, 15]: −10 and 0 (6×) and −1 (3×) and −2 (2×) and −4 and −14 and −5 and −7 and −11
CADES score of social interaction (items 6-10), change, 8 weeks [2, 15]: 0 (3×) and −9 and −8 and −5 and −2 and 1 and −10 and −1 (2×) and −3 and −6 and −7 and −13
CADES score of spatial orientation (items 1-5), change, 4 weeks [2, 15]: −9 and −3 (2×) and −1 (3×) and −2 (2×) and 2 and −11 and 0 (4×) and 3 and 5 and −19
CADES score of spatial orientation (items 1-5), change, 8 weeks [2, 15]: −5 and −8 and −6 and −3 (2×) and −1 and 3 (2×) and −16 and 0 (4×) and −2 and −20
Total CADES score change, 4 weeks [2, 15]: −20 and −13 and −6 (2×) and −5 (2×) and −4 and −58 and 0 (2×) and −2 and −8 and 5 (2×) and −11 and −15 and −52
Total CADES score change, 8 weeks [2, 15]: −15 and −42 and −28 and −17 and −14 and 3 and −62 and −4 and −9 and −6 and −2 and −10 (2×) and −18 and −59
mPGES-1 inhibition, effective concentration [3]: effective at nanomolar concentrations
improvement in cognitive and motor functions [4]: maximally beneficial effects
CCDR score, 4 weeks ([5]; 10 mg/kg oral once daily, 4 weeks of administration, individual dog (subject No.)): 38 and 40 and 55 and 56 and 53 and 54 and 60 and 52 and 50 and 43 and 63 and 49 and 30
CCDR score, 8 weeks ([5]; 10 mg/kg oral once daily, 8 weeks of administration, per individual dog): 34 and 46 and 41 and 51 and 54 and 27 and 50 and 53 and 59 and 43 and 30 and 42
beneficial effects maintained after the last administration ([5]; aged companion dogs with severe CDS, oral): at least 4 weeks
CCDR score change, 4 weeks [5, 16]: −22 and −11 (3×) and −9 (2×) and −12 (2×) and −18 and −5 and −1 and −7 and −6 and −16 and −10 and −44 and −13
CCDR score change, 8 weeks [5, 16]: −26 and −5 and −23 and −16 and −11 and −40 and −24 and −6 and −2 and −10 and −9 and −7 and −19 and −44 and −20
CCDR score, 12 weeks ([5]; subjects 3 and 4, 12-week administration): 32 and 43
CCDR score, 16 weeks (discontinuation) ([5]; subjects 3 and 4, 4 weeks after discontinuation of 12-week administration): 38 and 44
CCDR score, 20 weeks (discontinuation) ([5]; subjects 3 and 4, 8 weeks after discontinuation of 12-week administration): 36 and 43
CCDR score, 12 weeks (discontinuation) ([5]; subjects 7, 8, 10, 11, 4 weeks after discontinuation of 8-week administration): 48 and 50 and 54
cognitive function on the CCDR scale ([5]; within 4 weeks of oral administration): near normal cognitive function
improvement in cognitive and motor functions [6]: maximally beneficial effects
AUC [7]: 75100 ng·h/mL
Cmax [7]: 10600 ng/mL
NOAEL at 13 weeks [8]: 200 mg/kg/day
motor function activity and life span [9]: increases of motor function activity and life span
AUC ([10]; read-out: AUC (area under the plasma level-time curve)): 9610 ± 1380 ng·h/mL
Cmax ([10]; read-out: Cmax (mean maximum plasma concentration)): 5190 ± 960 ng/mL
blood toxicity test [11]: no significant changes
treatment-related adverse events [11]: did not occur

CC12CC3CC(C)(C1)CC(N)(C3)C2 [memantine]
mental function and ability to perform daily activities [12]: a small improvement

C#CCN(C)[C@H](C)Cc1ccccc1 [selegiline]
cognitive function in CDS dogs [13]: improved within the first 2 weeks
